# Data published in EP3024823B1, “INTERCALATING AMINO ACIDS” (priority 2013, dated 2015).
# How the values were obtained:
# [1] = target: T1, PylRS_AF (Methanosarcina mazei, UniProt Q8PWY1, Y306A/Y384F); assay: PylRS_AF-mediated amber suppression in GFP-Y39TAG (GFP expression in E. coli); assay type: cell-based; conditions: for yield of purified GFP-Y39→ncAA / expression of full-length GFP by cellular fluorescence / GFP expression, SDS PAGE of Ni-NTA-purified GFP: E. coli; for yield of purified GFP-Y39→ncAA / expression of full-length GFP by cellular fluorescence: PylRS_AF; for efficiency and accuracy of incorporation into peptides: Figure 2, whole cell fluorescence; for GFP expression, SDS PAGE of Ni-NTA-purified GFP: pREP-PylRS_AF, pBAD_GFP-Y39TAG
# T1 construct: expressed in transfected cells
# T1 sequence (Q8PWY1 whole entry Y306A/Y384F): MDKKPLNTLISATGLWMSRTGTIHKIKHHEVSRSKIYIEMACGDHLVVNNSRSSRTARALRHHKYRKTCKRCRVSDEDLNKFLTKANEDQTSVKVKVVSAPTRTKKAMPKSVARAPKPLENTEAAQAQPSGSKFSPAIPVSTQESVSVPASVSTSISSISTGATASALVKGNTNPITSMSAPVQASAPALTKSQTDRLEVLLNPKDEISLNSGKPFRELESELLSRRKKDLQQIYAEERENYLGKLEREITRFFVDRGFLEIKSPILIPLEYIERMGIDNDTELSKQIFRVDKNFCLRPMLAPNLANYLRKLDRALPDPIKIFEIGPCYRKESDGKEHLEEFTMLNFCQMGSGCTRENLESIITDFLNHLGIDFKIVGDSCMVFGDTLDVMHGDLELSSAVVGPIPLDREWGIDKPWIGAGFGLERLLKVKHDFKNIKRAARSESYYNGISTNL
# Source text: (§1) Protein Expression and Purification. All proteins were expressed from pBAD vectors and purified using a C-terminal His6 tag. For expression of proteins containing ncAA, E. coli cells were co-transformed with pBAD plasmid containing the target gene with amber codon (pBAD_GFP-39TAG, pBAD_TRX-R74-His6_TAG, pBAD_CmodC or pBAD_TAT, all conferring ampicillin resistance) and a plasmid coding for the respective PylRS mutant and tRNA^Pyl (pEVOL_PylRS_AF, pREP_PylRS_wt, _GF, _AF and PylRS_AF single or double alanine mutants). A single clone was picked and grown in Luria Broth (LB) media supplemented with suited antibiotics at 37 °C and 200 rpm shaking. 0.1 ml of this culture was used to inoculate 5 ml LB supplemented with the same antibiotics and different concentrations of the ncAA. The culture was incubated at 37 °C and 200 rpm shaking until OD600 of ∼0.4 - 0.6 and protein expression was induced with 0.02% (w/v) L-arabinose. The culture was harvested after 4 - 6 h of incubation by centrifugation (10 min, 3320 x g, room temperature). The pellet was lysed with B-Per lysis reagent (Thermo scientific) containing 1x Complete (-EDTA) protease inhibitor cocktail (Roche) and shaking at room temperature at 1400 rpm for 30 min. The suspension was pelleted by centrifugation (5 min, 20817 x g, room temperature) the supernatant was extracted with Ni-NTA agarose slurry (Qiagen) at an imidazole concentration of 10 mM by shaking at room temperature. The beads were washed with 350 µl 4x PBS and or two wash buffers (50 mM NaH2PO4, 300 mM NaCl, pH = 8.0, containing 20 - 50 mM imidazole). Proteins were eluted with elution buffer (50 mM NaH2PO4, 300 mM NaCl, pH = 8.0, containing 500 mM imidazole). For GFP-TAT protein containing ncAA 6, expressions were carried out in BL21 (DE3) gold and purification was conducted as above, but under denaturing conditions (8 M urea). Protein was refolded by stepwise dialysis against 20 mM Tris-HCl, pH = 8.0, 10 % glycerole with decreasing urea concentrations. Purity of the obtained proteins was analyzed by SDS PAGE and staining with Gelcode blue (Thermo Scientific) and quantified using a BCA assay (Pierce, Thermo Scientific). For GFP yield determination based on whole cell fluorescence, cell pellets from 3 ml expressions were washed twice with 3 ml 4x PBS (by centrifugation for 10 min at 3320 x g at room temperature and resuspension) and fluorescence was determined using a Tecan M200 plate reader using and excitation wavelength of 475 nm and an emission wavelength of 510 nm. Fluorescence values were corrected for cell densities based on OD600 - measurements. Generally, expressions were carried out in E. coli Top10 using carbenicillin selection for pEVOL plasmids and tetracyclin selection for pREP plasmids. Wild type thioredoxin and TRX-R74→6 were expressed in E. coli BL21 (DE3) gold cells. Expressed C-terminal fragment of PylRS_AF (aa 188-454) was stored in 10 mM HEPES-Na+, pH = 7.5, 5 mM MgCl2, 300 mM NaCl at -80 °C before use.
# Next, the tRNA^Pyl/PylRS pair of Methanosarcina mazei was analyzed for its capability to mediate the selective incorporation of ncAA 3 into proteins in E. coli in response to the amber codon, TAG. E. coli were co-transformed with plasmids pEVOL-PylRS_wt (encoding wild type M. mazei PylRS and tRNA^Pyl) and pBAD_GFP-39TAG (encoding GFP with an amber mutation at position Y39 and a C-terminal His6 tag) and the culture induced with L-arabinose in the presence or absence of 1 mM ncAA 3 or Nε-(tert-butyloxycarbonyl)-L-lysine (Boc-Lys, ncAA 2), which is an efficiently processed substrate of PylRS_wt. However, expression of full-length GFP was only detected for ncAA 2 by cellular fluorescence. […] Among amino acids that constitute the methyl-pyrroline binding pocket of PylRS, Y306 is a main component of the rear part and plays a critical role in discriminating against larger, Nε-carbamate-linked lysine derivatives. […]
# [2] = Solubility of the ncAA; assay type: physicochemical; conditions: limited solubility
# [3] = target: T2, PylRS_AF_D408A (Methanosarcina mazei, UniProt Q8PWY1, D408A/Y306A/Y384F); assay: PylRS_AF D408A-mediated amber suppression in GFP-Y39TAG (cellular GFP expression in E. coli); assay type: cell-based; conditions: pREP_PylRS_AF_D408A, pBAD_GFP-39TAG
# T2 construct: expressed in transfected cells
# T2 sequence (Q8PWY1 whole entry Y306A/Y384F/D408A): as the sequence (Q8PWY1 whole entry Y306A/Y384F) above, with D408A counted along it
# Source text: (§2) Protein Expression and Purification. All proteins were expressed from pBAD vectors and purified using a C-terminal His6 tag. For expression of proteins containing ncAA, E. coli cells were co-transformed with pBAD plasmid containing the target gene with amber codon (pBAD_GFP-39TAG, pBAD_TRX-R74-His6_TAG, pBAD_CmodC or pBAD_TAT, all conferring ampicillin resistance) and a plasmid coding for the respective PylRS mutant and tRNA^Pyl (pEVOL_PylRS_AF, pREP_PylRS_wt, _GF, _AF and PylRS_AF single or double alanine mutants). A single clone was picked and grown in Luria Broth (LB) media supplemented with suited antibiotics at 37 °C and 200 rpm shaking. 0.1 ml of this culture was used to inoculate 5 ml LB supplemented with the same antibiotics and different concentrations of the ncAA. […] Purity of the obtained proteins was analyzed by SDS PAGE and staining with Gelcode blue (Thermo Scientific) and quantified using a BCA assay (Pierce, Thermo Scientific). For GFP yield determination based on whole cell fluorescence, cell pellets from 3 ml expressions were washed twice with 3 ml 4x PBS (by centrifugation for 10 min at 3320 x g at room temperature and resuspension) and fluorescence was determined using a Tecan M200 plate reader using and excitation wavelength of 475 nm and an emission wavelength of 510 nm. Fluorescence values were corrected for cell densities based on OD600 - measurements. […]
# [4] = target: T3, PylRS_AF_L407A (Methanosarcina mazei, UniProt Q8PWY1, L407A/Y306A/Y384F); assay: PylRS_AF L407A-mediated amber suppression in GFP-Y39TAG (cellular GFP expression in E. coli); assay type: cell-based; conditions: pREP_PylRS_AF_L407A, pBAD_GFP-39TAG
# T3 construct: expressed in transfected cells
# T3 sequence (Q8PWY1 whole entry Y306A/Y384F/L407A): as the sequence (Q8PWY1 whole entry Y306A/Y384F) above, with L407A counted along it
# Source text: as §2
# [5] = target: T4, PylRS_GF (Methanosarcina mazei, UniProt Q8PWY1, Y306G/Y384F); assay: PylRS_GF-mediated amber suppression in GFP-Y39TAG (GFP expression in E. coli); assay type: cell-based; conditions: pREP-PylRS_GF (Y306G), pBAD_GFP-Y39TAG
# T4 construct: expressed in transfected cells
# T4 sequence (Q8PWY1 whole entry Y306G/Y384F): as the sequence (Q8PWY1 whole entry Y306A/Y384F) above, with A306G counted along it
# Source text: as §2
# [6] = target: T5, PylRS_wt (Methanosarcina mazei, UniProt Q8PWY1); assay: PylRS_wt-mediated amber suppression in GFP-Y39TAG (GFP expression in E. coli); assay type: cell-based; conditions: for GFP expression, SDS PAGE of Ni-NTA-purified GFP: pREP-PylRS_wt, pBAD_GFP-Y39TAG; for expression of full-length GFP by cellular fluorescence: pEVOL-PylRS_wt, pBAD_GFP-39TAG, 1 mM ncAA
# T5 construct: expressed in transfected cells
# T5 sequence (Q8PWY1 whole entry): as the sequence (Q8PWY1 whole entry Y306A/Y384F) above, with A306Y, F384Y counted along it
# Source text: as §1, with “Protein was refolded by stepwise dialysis against 20 mM Tris-HCl, pH = 8.0, 10 % glycerole with decreasing urea concentrations.” left out, “Generally, expressions were carried out in E. coli Top10 using carbenicillin selection for pEVOL plasmids and tetracyclin selection for pREP plasmids. Wild type thioredoxin and TRX-R74→6 were expressed in E. coli BL21 (DE3) gold cells. Expressed C-terminal fragment of PylRS_AF (aa 188-454) was stored in 10 mM HEPES-Na+, pH = 7.5, 5 mM MgCl2, 300 mM NaCl at -80 °C before use.” left out
# Next, the tRNA^Pyl/PylRS pair of Methanosarcina mazei was analyzed for its capability to mediate the selective incorporation of ncAA 3 into proteins in E. coli in response to the amber codon, TAG. […] However, expression of full-length GFP was only detected for ncAA 2 by cellular fluorescence. […]
# [7] = pBAD_GFP-39TAG, 1 mM ncAA, non-optimized conditions
compound,measurement,setting,value
"N[C@@H](CCCCNC(=O)c1cc2ccccc2cn1)C(=O)O [ncAA 6, Nε-(isoquinoline-3-carbonyl)-L-lysine]",yield of purified GFP-Y39→ncAA,[1]; [7],1.4 mg/L
same,efficiency and accuracy of incorporation into peptides,[1],best results
N[C@@H](CCCCNC(=O)c1nc2ccccc2nc1O)C(=O)O [Nε-(2-hydroxyquinoxaline-3-carbonyl)-L-lysine],expression of full-length GFP by cellular fluorescence,[1]; pBAD_GFP-39TAG,no significant fluorescence increase compared to background
"N[C@@H](CCCCNC(=O)c1ccc2ccccc2c1)C(=O)O [ncAA 7, Nε-(naphtalene-2-carbonyl)-L-lysine]",solubility,[2],~100 µM
same,expression of full-length GFP by cellular fluorescence,[1]; pBAD_GFP-39TAG,no expression
(S)-2-amino-6-(((benzo[h]quinolin-2-ylmethoxy)carbonyl)amino) hexanoic acid [ncAA 8],efficiency and accuracy of incorporation into peptides,[1],best results
"N[C@@H](CCCCNC(=O)c1ccc2ccccc2n1)C(=O)O [ncAA 5, Nε-(quinoline-2-carbonyl)-L-lysine]",cellular GFP expression,[3],significant levels
same,cellular GFP expression,[4],significant levels
same,"GFP expression, SDS PAGE of Ni-NTA-purified GFP",[5],significant expression
same,yield of purified GFP-Y39→ncAA,[1]; standard expression conditions,> 11 mg/L
same,yield of purified GFP-Y39→ncAA,[1]; [7],4.5 mg/L
same,"GFP expression, SDS PAGE of Ni-NTA-purified GFP",[1],significant expression
same,"GFP expression, SDS PAGE of Ni-NTA-purified GFP",[6],not recognized
"N[C@@H](CCCCNC(=O)c1cnc2ccccc2n1)C(=O)O [ncAA 3, Nε-(quinoxaline-2-carbonyl)-L-lysine]",yield of purified GFP-Y39→ncAA,[1]; [7],1.4 mg/L
same,expression of full-length GFP by cellular fluorescence,[6],failure of amber suppression
same,"GFP expression, SDS PAGE of Ni-NTA-purified GFP",[6],not recognized
"CC(C)(C)OC(=O)NCCCC[C@H](N)C(=O)O [ncAA 2, Nε-(tert-butyloxycarbonyl)-L-lysine, reference compound]",cellular GFP expression,[3],significant levels
same,cellular GFP expression,[4],significant levels
same,"GFP expression, SDS PAGE of Ni-NTA-purified GFP",[5],significant expression
same,"GFP expression, SDS PAGE of Ni-NTA-purified GFP",[1],significant expression
same,expression of full-length GFP by cellular fluorescence,[6],detected
